Values joined by “and” are separate entries in the source; they are usually repeats but may differ in a detail not shown here. Equal values may be shown once.
Legend:
[1] = tested on: myeloma cell line (Sp2/0); assay: Fermentation in dialysis mode, 1000 L production bioreactor, with addition of citrate; assay type: cell-based
Description: The cells of a myeloma cell line (Sp2/0) were thawed and expanded up to 2 L in spinner flasks over a period of approximately 14 days for the inoculation of a 10 L bioreactor. After 2 to 4 days the cells were split or transferred to a 100 L bioreactor and further cultivated for 2 to 4 days. The 100 L bioreactor served as inoculum for the 1000 L production bioreactor. For each inoculum step a starting cell density of about 0.2 to about 0.4×10^6 viable cells per mL was used.
The production bioreactor ran in a dialysis mode. The bioreactor was a stirred tank reactor with a working volume of about 900 to about 1300 L. Aeration was performed by sparging. The following process parameters were controlled: pH, temperature, pO^2, pressure and agitation rate. The bioreactor was equipped for dialysis mode with hollow fibre cartridges. The cartridges were connected to an external loop with a dialysis medium reservoir. The dialysis of the culture was started 2 to 4 days after inoculation. During fermentation the reservoir was repeatedly filled up with fresh dialysis medium. Some medium components were fed as separate sterile solutions to the bioreactor. These comprise glucose, amino acids, vitamins, and trace elements.
Fermentation was terminated after a maximum of 16 days.
The citrate was added to the fermentation medium and to the dialysis medium.

[2] = tested on: myeloma cell line (Sp2/0); assay: Fermentation in fed batch mode, 10 L bioreactor, with addition of citrate; assay type: cell-based; conditions: 2.4 mmol/L citrate, 10 L scale, single runs and mean
Experimental: The cells of a myeloma cell line were thawed (Sp2/0) and expanded up to 2 L in spinner flasks for the inoculation of a 10 L bioreactor. The production bioreactor ran in a fed batch mode. The bioreactor was a stirred tank reactor with a working volume of from about 9 to about 13 L. Aeration was performed by sparging. The following process parameters were controlled: pH, temperature, pO2, pressure and agitation rate. Feeding of the culture was started 2 to 4 days after inoculation. Components including glucose, amino acids, vitamins, and trace elements were fed as separate sterile solutions to the bioreactor. Fermentation was terminated after maximum of 10 days.

**Q.** Which “Amount of alkali required to adjust a constant pH value reduced to, % of the control” value [1] does the source give for `O=C(O)CC(O)(CC(=O)O)C(=O)O` [Citrate] here?
**A.** about 34%

**Q.** What about the “Reduction of the specific consumption rate for glucose” value ([1]; 1000 L scale, versus runs without citrate, printed 'reduced ... about 44%') of the same compound?
**A.** about 44%

**Q.** What about the “Specific consumption rate of glucose” value [2] of the same compound?
**A.** 443 μg/10^6 cells x day and 715 μg/10^6 cells x day and 451 μg/10^6 cells x day

**Q.** What about the “Specific production rate of lactate” value [2] of the same compound?
**A.** 230 μg/10^6 cells x day and 392 μg/10^6 cells x day and 304 μg/10^6 cells x day

**Q.** And the “Specific consumption rate of glucose” value ([2]; mean)?
**A.** 536 μg/10^6 cells x day

From US7390660B2, “Methods for growing mammalian cells in vitro” (Hoffman-La Roche Inc., priority 2002, dated 2008)
